Source: patent EP2063887B1, “NEW SMALL MOLECULE INHIBITORS OF MDM2 AND THE USES THEREOF” (priority 2006, dated 2008)
Several values for one entry are separate records, joined by “and”; a condition that tells them apart may be missing. Equal values may be shown once. Read-outs that look alike come from different tables or passages of the source.

Columns and labels:
HCT116 p53KO = assay: Cell growth inhibition (WST-8), HCT116 p53KO; assay type: cell-based;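 note: cells in 96-well plates exposed to compound for 4 days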
Procedure: (§1) Cells were seeded in 96-well flat bottom cell culture plates at a density of 3-4x 10^3 cells/well and incubated in the presence of compounds for 4 days.

PC-3 (p53 null) = assay: Cell growth inhibition (WST-8, 4 days), PC3; assay type: cell-based, human;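 note: PC-3 is a human prostate cancer line, cultured with test compound throughout the 4-day growth assay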
Procedure: (§2) To test these predictions, a cell growth assay was developed using human prostate cancer LNCaP (p53 wild-type) and PC-3 (p53 null) cell lines. The toxic effects of compounds of the invention were tested.
as §1

HCT116 p53WT = assay: Cell growth inhibition (WST-8), HCT116 p53WT; assay type: cell-based; conditions: individual determinations and mean ± SD lines;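 note: compound exposure of the cells lasted 4 days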
Procedure: as §1

MDM2 protein = MDM2 protein (Homo sapiens, UniProt Q00987); assay: MDM2 binding assay, competition with tracer F-6 (IC50 and calculated Ki); conditions: MDM2 [10 nM]; F-6 [1 nM]; individual determinations, values not in parentheses
Chain of MDM2 protein (Q00987 whole entry, species assumed): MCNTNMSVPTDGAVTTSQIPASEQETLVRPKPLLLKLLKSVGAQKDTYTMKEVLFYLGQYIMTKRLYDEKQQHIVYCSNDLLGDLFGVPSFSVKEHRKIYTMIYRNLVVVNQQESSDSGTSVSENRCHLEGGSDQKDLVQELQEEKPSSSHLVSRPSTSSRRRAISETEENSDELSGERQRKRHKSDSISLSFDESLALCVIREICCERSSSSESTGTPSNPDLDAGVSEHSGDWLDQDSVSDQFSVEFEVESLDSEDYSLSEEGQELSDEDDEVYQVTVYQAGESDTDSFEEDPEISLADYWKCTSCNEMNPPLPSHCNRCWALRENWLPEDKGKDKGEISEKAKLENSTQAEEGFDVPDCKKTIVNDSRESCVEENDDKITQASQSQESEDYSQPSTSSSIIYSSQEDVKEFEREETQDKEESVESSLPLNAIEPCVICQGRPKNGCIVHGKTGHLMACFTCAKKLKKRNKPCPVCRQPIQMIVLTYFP

LNCaP (p53 wild-type) = assay: Cell growth inhibition (WST-8, 4 days), LNCaP; assay type: cell-based, human;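 note: LNCaP human prostate cancer cells exposed to compound for 4 days, with inhibition of cell growth as the measured effect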
Procedure: as §2, §1

[1] = HCT116 p53KO, individual determinations and mean ± SD lines, read-out: HCT116 p53KO IC50
[2] = PC3, p53 null, individual determinations and mean ± SD lines, read-out: PC3 IC50
[3] = HCT116 p53WT, read-out: HCT116 p53WT IC50
[4] = read-out: HCT116 p53KO IC50, HCT116 p53KO, individual determinations and mean ± SD lines
[5] = read-out: LNCaP IC50, individual determinations and mean ± SD lines
[6] = read-out: PC3 IC50, PC3, p53 null, individual determinations and mean ± SD lines
[7] = Homo sapiens, HCT-116, read-out: HCT116 p53WT IC50 (µM), HCT116 p53WT
[8] = read-out: HCT116 p53WT IC50, HCT116 p53WT
[9] = individual determinations and mean ± SD lines, read-out: LNCaP IC50
[10] = Homo sapiens, HCT-116, HCT116 p53KO, individual determinations and mean ± SD lines, read-out: HCT116 p53KO IC50
[11] = Homo sapiens, 96 h, individual determinations and mean ± SD lines, read-out: LNCaP IC50
[12] = Homo sapiens, HCT-116, HCT116 p53WT, read-out: HCT116 p53WT IC50
[13] = Homo sapiens, 96 h, PC3, p53 null, individual determinations and mean ± SD lines, read-out: PC3 IC50

Molecule | IC50 (HCT116 p53KO; [1]) | IC50 (PC-3 (p53 null); [2]) | IC50 (HCT116 p53WT; [3]) | IC50 (LNCaP (p53 wild-type); [9]) | also measured
6-CHLORO-4'-(3-CHLORO-4-FLUOROPHENYL)-2'-(2,2-DIMETHYL-PROPYL)-5-FLUORO-2-OXO-1'-OXY-1,2,4',5'-TETRAHYDRO-SPIRO[INDOLE-3,3'-PYRROLE]-5'-CARBOXYLIC ACID (3,4-DIHYDROXY-BUTYL)-AMIDE [MI-319-14] | > 30 µM | 40.1 µM and 40.2 µM and > 30 µM | 8.01 µM and 9.27 µM and 5.74 µM and 7.67 µM |  | IC50 (MDM2 protein): 2.04 µM and 1.66 µM
CC(C)(C)C[C@H]1N[C@@H](C(=O)NCCC2CCC(O)C2)[C@H](c2ccc(F)c(Cl)c2)[C@@]12C(=O)Nc1cc(Cl)c(F)cc12 (single isomer, unassigned) [MDM2-319-6, 6-CHLORO-4'-(3-CHLORO-4-FLUOROPHENYL)-2'-(2,2-DIMETHYL-PROPYL)-5-FLUORO-2-OXO-1,2-DIHYDRO-SPIRO[INDOLE-3,3'-PYRROLIDINE]-5'-CARBOXYLIC ACID [2-(3-HYDROXY-CYCLOPENTYL)-ETHYL)-AMIDE] |  |  |  |  | IC50 (HCT116 p53KO; Homo sapiens, HCT-116, read-out: HCT116 p53KO IC50 (µM), HCT116 p53KO, individual determinations and mean ± SD lines): 14.3 µM; IC50 (HCT116 p53KO; [4]): 16.1 µM and 14.6 µM and 15 µM; IC50 (LNCaP (p53 wild-type); [5]): 2.58 µM and 1.22 µM and 1.93 µM and 1.91 µM; IC50 (PC-3 (p53 null); Homo sapiens, 96 h, read-out: PC3 IC50 (µM), PC3, p53 null, individual determinations and mean ± SD lines): 21.4 µM; IC50 (PC-3 (p53 null); [6]): 20.8 µM and 14.2 µM and 18.7 µM; IC50 (HCT116 p53WT; [7]): 5.45 µM; IC50 (HCT116 p53WT; [8]): 7.41 µM and 5.96 µM and 6.26 µM
CC(C)(C)C[C@H]1N[C@@H](C(=O)NCC[C@H](O)CO)[C@H](c2ccc(F)c(Cl)c2)[C@@]12C(=O)Nc1cc(Cl)c(F)cc12 [MDM2-319, (2'R,3S,3"S,4'R,5'R) 6-CHLORO-4'-(3-CHLORO-4-FLUORO-PHENYL)-2'-(2,2-DIMETHYL-PROPYL)-5-FLUORO-2-OXO-1,2-DIHYDRO-SPIRO[INDOLE-3,3'-PYRROLIDINE]-5'-CARBOXYLIC ACID (3,4-DIHYDROXY-BUTYL)-AMIDE] |  |  | 0.717 µM and 0.615 µM and 0.247 µM and 0.52 µM | 0.274 µM and 0.184 µM and 0.229 µM | IC50 (HCT116 p53KO; read-out: HCT116 p53KO IC50): 11.8 µM and 12.2 µM and 14.2 µM
O=C(NCC[C@H](O)CO)[C@@H]1N[C@H](CC2CCCC2)[C@]2(C(=O)Nc3cc(Cl)c(F)cc32)[C@H]1c1ccc(F)c(Cl)c1 [MDM2-319-1, 6-CHLORO-4'-(3-CHLORO-4-FLUOROPHENYL)-2'-CYCLOPENTYLMETHYL-5-FLUORO-2-OXO-1,2-DIHYDRO-SPIRO[INDOLE-3,3'-PYRROLIDINE]-5'-CARBOXYLIC ACID (3,4-DIHYDROXY-BUTYL)-AMIDE] | 10.4 µM |  | 1.36 µM | 0.36 µM | IC50 (HCT116 p53KO; [10]): 12.7 µM; IC50 (LNCaP (p53 wild-type); [11]): 0.261 µM; IC50 (HCT116 p53WT; [12]): 0.908 µM
O=C(NCC[C@H](O)CO)[C@@H]1N[C@H](C2CCCCC2)[C@]2(C(=O)Nc3cc(Cl)c(F)cc32)[C@H]1c1ccc(F)c(Cl)c1 [MDM2-319-4, 6-CHLORO-4'-(3-CHLORO-4-FLUOROPHENYL)-2'-CYCLOHEXYL-5-FLUORO-2-OXO-1,2-DIHYDRO-SPIRO[INDOLE-3,3'-PYRROLIDINE]-5'-CARBOXYLIC ACID (3,4-DIHYDROXY-BUTYL)-AMIDE] | 13.1 µM and 26.5 µM and 13.4 µM and 17.6 µM | 23.4 µM and 25.6 µM and 22.5 µM | 5.03 µM and 5.8 µM and 2.41 µM and 4.41 µM | 1.29 µM and 0.89 µM and 1.21 µM | IC50 (LNCaP (p53 wild-type); [11]): 1.42 µM; IC50 (PC-3 (p53 null); [13]): 18.5 µM
CC(C)(C)C[C@H]1N[C@@H](C(=O)NCCC2CCC(O)C2)[C@H](c2ccc(F)c(Cl)c2)[C@@]12C(=O)Nc1cc(Cl)c(F)cc12 (stereo partly shown) [MDM2-319-5] | 5.39 µM and 8.4 µM and 8.1 µM | 5.55 µM and 8.71 µM and 7.91 µM | 1.29 µM and 1.5 µM and 1.23 µM | 0.465 µM and 0.634 µM and 0.56 µM | 
COC(C)(C)C[C@H]1N[C@@H](C(=O)NCC[C@H](O)CO)[C@H](c2ccc(F)c(Cl)c2)[C@@]12C(=O)Nc1cc(Cl)c(F)cc12 [MI-319-7] |  | 34.3 µM | 7.95 µM | 1.92 µM | 
O=C(NCC[C@H](O)CO)[C@@H]1N[C@H](C2CCCC2)[C@]2(C(=O)Nc3cc(Cl)c(F)cc32)[C@H]1c1ccc(F)c(Cl)c1 [MI-319-8, 6-CHLORO-4'-(3-CHLORO-4-FLUOROPHENYL)-2'-CYCLOPENTYL-5-FLUORO-2-OXO-1,2-DIHYDRO-SPIRO[INDOLE-3,3'-PYRROLIDINE]-5'-CARBOXYLIC ACID (3,4-DIHYDROXY-BUTYL)-AMIDE] | 25.5 µM and 22.7 µM and 26.3 µM | 20.7 µM and 18.4 µM and 23.3 µM | 4.73 µM and 2.74 µM and 3.86 µM | 0.963 µM and 0.893 µM and 0.662 µM and 1.46 µM | IC50 (HCT116 p53KO; [10]): 30.9 µM; IC50 (PC-3 (p53 null); [13]): 30.7 µM; IC50 (HCT116 p53WT; [12]): 4.11 µM
CN1CCN(C(=O)[C@@H]2N[C@H](CC(C)(C)C)[C@]3(C(=O)Nc4cc(Cl)c(F)cc43)[C@H]2c2ccc(F)c(Cl)c2)CC1 [MI-319-9] |  |  |  |  | IC50 (HCT116 p53KO; [4]): 9.71 µM and 8.19 µM and 4.52 µM and 7.47 µM; IC50 (LNCaP (p53 wild-type); [5]): 5 µM and 2.46 µM; IC50 (HCT116 p53WT; [7]): 7.48 µM; IC50 (HCT116 p53WT; [8]): 9.2 µM and 4.63 µM and 7.1 µM
CC(=O)N1[C@@H](C(=O)NCC[C@H](O)CO)[C@H](c2ccc(F)c(Cl)c2)[C@@]2(C(=O)Nc3cc(Cl)c(F)cc32)[C@H]1CC(C)(C)C [MI-319-13, 1'-ACETYL-6-CHLORO-4'-(3-CHLORO-4-FLUOROPHENYL)-2'-(2,2-DIMETHYLPROPYL)-5-FLUORO-2-OXO-1,2-DIHYDRO-SPIRO[INDOLE-3,3'-PYRROLIDINE]-5'-CARBOXYLIC ACID (3,4-DIHYDROXY-BUTYL)-AMIDE] |  |  |  |  | IC50 (LNCaP (p53 wild-type); [5]): 3.66 µM and 2.32 µM and 4.85 µM and 3.6 µM; IC50 (HCT116 p53WT; [8]): 3.23 µM and 6.37 µM and 11 µM and 6.85 µM
CC(C)(C)C[C@H]1N[C@@H](C(=O)NCCn2ccnc2)[C@H](c2ccc(F)c(Cl)c2)[C@@]12C(=O)Nc1cc(Cl)c(F)cc12 [MI-319-17, 6-CHLORO-4'-(3-CHLORO-4-FLUOROPHENYL)-2'-(2,2-DIMETHYL-PROPYL)-5-FLUORO-2-OXO-1,2-DIHYDRO-SPIRO[INDOLE-3,3'-PYRROLIDINE]-5'-CARBOXYLIC ACID (2-IMIDAZOL-1-YL-ETHYL)-AMIDE] | 22.3 µM and 25.1 µM | 22 µM and 23.6 µM | 3.79 µM and 3.15 µM | 1.55 µM and 1.51 µM | IC50 (HCT116 p53KO; [10]): 25.1 µM; IC50 (LNCaP (p53 wild-type); [11]): 1.1 µM; IC50 (PC-3 (p53 null); [13]): 14 µM; IC50 (HCT116 p53WT; [12]): 2.1 µM
CC(C)(C)C[C@H]1N[C@@H](C(=O)NC[C@H](O)[C@H](O)CO)[C@H](c2ccc(F)c(Cl)c2)[C@@]12C(=O)Nc1cc(Cl)c(F)cc12 [MI-319-19, 6-CHLORO-4'-(3-CHLORO-4-FLUOROPHENYL)-2'-(2,2-DIMETHYL-PROPYL)-5-FLUORO-2-OXO-1,2-DIHYDRO-SPIRO[INDOLE-3,3'-PYRROLIDINE]-5'-CARBOXYLIC ACID (2,3,4-TRIHYDROXY-BUTYL)-AMIDE] | > 30 µM and 77.6 µM | > 30 µM and 41.6 µM | 2.68 µM and 5.98 µM and 4.6 µM | 2.4 µM and 1.2 µM | IC50 (LNCaP (p53 wild-type); [11]): 1.24 µM; IC50 (PC-3 (p53 null); [13]): 30.7 µM
CC(C)(C)C[C@H]1N[C@@H](C(=O)NCCNC(=N)N)[C@H](c2ccc(F)c(Cl)c2)[C@@]12C(=O)Nc1cc(Cl)c(F)cc12 [MI-319-20, 6-CHLORO-4'-(3-CHLORO-4-FLUOROPHENYL)-2'-(2,2-DIMETHYL-PROPYL)-5-FLUORO-2-OXO-1,2-DIHYDRO-SPIRO[INDOLE-3,3'-PYRROLIDINE]-5'-CARBOXYLIC ACID (2-GUANIDINO-ETHYL)-AMIDE] |  |  |  |  | IC50 (HCT116 p53KO; [4]): > 100 µM; IC50 (PC-3 (p53 null); [6]): > 30 µM and 66.1 µM; IC50 (HCT116 p53WT; [8]): > 30 µM and 93.5 µM
CC(C)(C)C[C@H]1N[C@@H](C(=O)NCCc2ncc[nH]2)[C@H](c2cccc(Cl)c2)[C@@]12C(=O)Nc1cc(Cl)c(F)cc12 [MI-319-21] | 13.2 µM | 14.1 µM | 3.88 µM | 1.84 µM | 
